# From ChEMBL document CHEMBL1152343, “2-Arylbenzofuran Derivatives from Morus cathayana” (J Nat Prod, 2009)
# Columns and labels:
# Assay type in all cases: functional, cell-based
# HCT-8 = assay: Cytotoxicity against human HCT8 […] by MTT assay
# A2780 = assay: Cytotoxicity against human A2780 […] by MTT assay
# BGC-823 = assay: Cytotoxicity against human BGC823 […] by MTT assay
# A549 = assay: Cytotoxicity against human A549 […] by MTT assay
Structure (SMILES),IC50 (HCT-8),IC50 (A2780),IC50 (BGC-823),IC50 (A549)
CC(C)=CCc1c(O)cc2c(c1-c1cc3ccc(O)cc3o1)C=CC(C)(C)O2 [CATHAFURAN C],7.33 mg/L,7.61 mg/L,,
CC(C)=CCc1c(O)cc(O)cc1-c1cc2ccc(O)c(CC=C(C)C)c2o1 [CATHAFURAN B],6.27 mg/L,6.27 mg/L,6.27 mg/L,6.27 mg/L
O=c1[nH]cc(F)c(=O)[nH]1 [FLUOROURACIL],0.2 mg/L,0.2 mg/L,0.2 mg/L,0.2 mg/L
